Assay: recombinant barcode read abundance after kanamycin selection (control-corrected) (log10(CPM+1)); higher = more efficient recombination; sequences stand for … in AGTGCAGAGAAAATCGGCCAGTTTTCTCTGCCTGCAGTCCGCATGCCGT…ATTTATGCAGCGGACTGCCTTTCTCCCAAAGTGATAAACCGGACAGTATCATGGACCGGTTTTCCCGGTAATCCGTATTTGCAAGGTTGGTTTCACT; site = the 11-nt target
Method in brief: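 Targets and IS621 bridge RNA target-binding loops were paired in oligos, each with a promoter, a barcode and the J23119-driven first 104 bridge RNA bases. A vector carrying the remaining 73 bp and a T7-inducible recombinase received these by Gibson cloning, and the pool was co-electroporated into E. coli with a donor plasmid. Duplicate plates contained chloramphenicol/ampicillin LB agar (control) or chloramphenicol/ampicillin/kanamycin with 0.1 mM IPTG. Recombination efficiency comes from averaged, control-corrected counts per million of recombinant-junction barcodes, reported as log10(CPM+1).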

Sequence	recombinant barcode read abundance (log10)
AGGCGGTGATGGGTTCTAACCTGTTGCTTTC [AGGCGGTCTAA_LTGcore_GA_RTGcore_GA] (site AGGCGGTCTAA) (LTG core: GA, RTG core: GA)	0.101
AGTCTTAAATGGGTTCTAACCTGTTGCCAAG [AGTCTTACTTG_LTGcore_AA_RTGcore_CT] (site AGTCTTACTTG) (LTG core: AA, RTG core: CT)	0.182
AGTCTTACTTGGGTTCTAACCTGTTGCCAAC [AGTCTTACTTG_LTGcore_CT_RTGcore_GT] (site AGTCTTACTTG) (LTG core: CT, RTG core: GT)	0.0371
AGTCTTACTTGGGTTCTAACCTGTTGCCACT [AGTCTTACTTG_LTGcore_CT_RTGcore_AG] (site AGTCTTACTTG) (LTG core: CT, RTG core: AG)	0.0729
AGTCTTACTTGGGTTCTAACCTGTTGCCAGT [AGTCTTACTTG_LTGcore_CT_RTGcore_AC] (site AGTCTTACTTG) (LTG core: CT, RTG core: AC)	0.0396
AGTCTTAGTTGGGTTCTAACCTGTTGCCAAC [AGTCTTACTTG_LTGcore_GT_RTGcore_GT] (site AGTCTTACTTG) (LTG core: GT, RTG core: GT)	0
AGTCTTATGTGGGTTCTAACCTGTTGCCAAG [AGTCTTACTTG_LTGcore_TG_RTGcore_CT] (site AGTCTTACTTG) (LTG core: TG, RTG core: CT)	0.0537
AGTCTTATGTGGGTTCTAACCTGTTGCCACA [AGTCTTACTTG_LTGcore_TG_RTGcore_TG] (site AGTCTTACTTG) (LTG core: TG, RTG core: TG)	0.0473
ATGCTTTAGTGGGTTCTAACCTGTTGCCTCT [ATGCTTTCTAG_LTGcore_AG_RTGcore_AG] (site ATGCTTTCTAG) (LTG core: AG, RTG core: AG)	0.0908
ATGCTTTATTGGGTTCTAACCTGTTGCCTAT [ATGCTTTCTAG_LTGcore_AT_RTGcore_AT] (site ATGCTTTCTAG) (LTG core: AT, RTG core: AT)	0.153
ATGCTTTCATGGGTTCTAACCTGTTGCCTAG [ATGCTTTCTAG_LTGcore_CA_RTGcore_CT] (site ATGCTTTCTAG) (LTG core: CA, RTG core: CT)	0.0483
ATGCTTTCTTGGGTTCTAACCTGTTGCCTCG [ATGCTTTCTAG_LTGcore_CT_RTGcore_CG] (site ATGCTTTCTAG) (LTG core: CT, RTG core: CG)	0.21
ATGCTTTCTTGGGTTCTAACCTGTTGCCTTA [ATGCTTTCTAG_LTGcore_CT_RTGcore_TA] (site ATGCTTTCTAG) (LTG core: CT, RTG core: TA)	0.0193
ATGCTTTCTTGGGTTCTAACCTGTTGCCTTT [ATGCTTTCTAG_LTGcore_CT_RTGcore_AA] (site ATGCTTTCTAG) (LTG core: CT, RTG core: AA)	0.103
ATGCTTTTCTGGGTTCTAACCTGTTGCCTAG [ATGCTTTCTAG_LTGcore_TC_RTGcore_CT] (site ATGCTTTCTAG) (LTG core: TC, RTG core: CT)	0.439
ATGCTTTTCTGGGTTCTAACCTGTTGCCTGA [ATGCTTTCTAG_LTGcore_TC_RTGcore_TC] (site ATGCTTTCTAG) (LTG core: TC, RTG core: TC)	0.187
ATGCTTTTTTGGGTTCTAACCTGTTGCCTAG [ATGCTTTCTAG_LTGcore_TT_RTGcore_CT] (site ATGCTTTCTAG) (LTG core: TT, RTG core: CT)	0.239
ATGTCCCAATGGGTTCTAACCTGTTGCTCAG [ATGTCCCCTGA_LTGcore_AA_RTGcore_CT] (site ATGTCCCCTGA) (LTG core: AA, RTG core: CT)	0.274
ATGTCCCCTTGGGTTCTAACCTGTTGCTCAA [ATGTCCCCTGA_LTGcore_CT_RTGcore_TT] (site ATGTCCCCTGA) (LTG core: CT, RTG core: TT)	0.0803
ATGTCCCCTTGGGTTCTAACCTGTTGCTCAG [ATGTCCCCTGA_LTGcore_CT_RTGcore_CT] (site ATGTCCCCTGA) (LTG core: CT, RTG core: CT)	1.46
ATGTCCCCTTGGGTTCTAACCTGTTGCTCCC [ATGTCCCCTGA_LTGcore_CT_RTGcore_GG] (site ATGTCCCCTGA) (LTG core: CT, RTG core: GG)	0.175
ATGTCCCCTTGGGTTCTAACCTGTTGCTCGA [ATGTCCCCTGA_LTGcore_CT_RTGcore_TC] (site ATGTCCCCTGA) (LTG core: CT, RTG core: TC)	0.0646
ATGTCCCCTTGGGTTCTAACCTGTTGCTCTT [ATGTCCCCTGA_LTGcore_CT_RTGcore_AA] (site ATGTCCCCTGA) (LTG core: CT, RTG core: AA)	0.0454

Sequence	recombinant barcode read abundance (log10)
ATGTCCCGATGGGTTCTAACCTGTTGCTCTC [ATGTCCCCTGA_LTGcore_GA_RTGcore_GA] (site ATGTCCCCTGA) (LTG core: GA, RTG core: GA)	0.0444
CATATTACGTGGGTTCTAACCTGTTGCCTAG [CATATTACTAG_LTGcore_CG_RTGcore_CT] (site CATATTACTAG) (LTG core: CG, RTG core: CT)	0.0547
CATATTACTTGGGTTCTAACCTGTTGCCTAA [CATATTACTAG_LTGcore_CT_RTGcore_TT] (site CATATTACTAG) (LTG core: CT, RTG core: TT)	0.105
CATATTACTTGGGTTCTAACCTGTTGCCTCA [CATATTACTAG_LTGcore_CT_RTGcore_TG] (site CATATTACTAG) (LTG core: CT, RTG core: TG)	0.0517
CATATTACTTGGGTTCTAACCTGTTGCCTCT [CATATTACTAG_LTGcore_CT_RTGcore_AG] (site CATATTACTAG) (LTG core: CT, RTG core: AG)	0.0539
CATATTACTTGGGTTCTAACCTGTTGCCTTC [CATATTACTAG_LTGcore_CT_RTGcore_GA] (site CATATTACTAG) (LTG core: CT, RTG core: GA)	0.084
CATATTACTTGGGTTCTAACCTGTTGCCTTT [CATATTACTAG_LTGcore_CT_RTGcore_AA] (site CATATTACTAG) (LTG core: CT, RTG core: AA)	0.0756
CATATTAGGTGGGTTCTAACCTGTTGCCTCC [CATATTACTAG_LTGcore_GG_RTGcore_GG] (site CATATTACTAG) (LTG core: GG, RTG core: GG)	0.117
CATATTATATGGGTTCTAACCTGTTGCCTAG [CATATTACTAG_LTGcore_TA_RTGcore_CT] (site CATATTACTAG) (LTG core: TA, RTG core: CT)	0.0615
CATATTATCTGGGTTCTAACCTGTTGCCTAG [CATATTACTAG_LTGcore_TC_RTGcore_CT] (site CATATTACTAG) (LTG core: TC, RTG core: CT)	0.127
CATATTATTTGGGTTCTAACCTGTTGCCTAA [CATATTACTAG_LTGcore_TT_RTGcore_TT] (site CATATTACTAG) (LTG core: TT, RTG core: TT)	0.0172
CATATTATTTGGGTTCTAACCTGTTGCCTAG [CATATTACTAG_LTGcore_TT_RTGcore_CT] (site CATATTACTAG) (LTG core: TT, RTG core: CT)	0
CGAGCCCAGTGGGTTCTAACCTGTTGCTGCT [CGAGCCCCTCA_LTGcore_AG_RTGcore_AG] (site CGAGCCCCTCA) (LTG core: AG, RTG core: AG)	0.189
CGAGCCCATTGGGTTCTAACCTGTTGCTGAG [CGAGCCCCTCA_LTGcore_AT_RTGcore_CT] (site CGAGCCCCTCA) (LTG core: AT, RTG core: CT)	0.104
CGAGCCCCCTGGGTTCTAACCTGTTGCTGGG [CGAGCCCCTCA_LTGcore_CC_RTGcore_CC] (site CGAGCCCCTCA) (LTG core: CC, RTG core: CC)	0.0674
CGAGCCCCTTGGGTTCTAACCTGTTGCTGTA [CGAGCCCCTCA_LTGcore_CT_RTGcore_TA] (site CGAGCCCCTCA) (LTG core: CT, RTG core: TA)	0.68
CGAGCCCGATGGGTTCTAACCTGTTGCTGAG [CGAGCCCCTCA_LTGcore_GA_RTGcore_CT] (site CGAGCCCCTCA) (LTG core: GA, RTG core: CT)	0.157
CGAGCCCGGTGGGTTCTAACCTGTTGCTGCC [CGAGCCCCTCA_LTGcore_GG_RTGcore_GG] (site CGAGCCCCTCA) (LTG core: GG, RTG core: GG)	0.18
CGAGCCCTATGGGTTCTAACCTGTTGCTGAG [CGAGCCCCTCA_LTGcore_TA_RTGcore_CT] (site CGAGCCCCTCA) (LTG core: TA, RTG core: CT)	0.312
CGAGCCCTCTGGGTTCTAACCTGTTGCTGGA [CGAGCCCCTCA_LTGcore_TC_RTGcore_TC] (site CGAGCCCCTCA) (LTG core: TC, RTG core: TC)	0.139
CGCGCCCAGTGGGTTCTAACCTGTTGCGGAG [CGCGCCCCTCC_LTGcore_AG_RTGcore_CT] (site CGCGCCCCTCC) (LTG core: AG, RTG core: CT)	0.0753
CGCGCCCATTGGGTTCTAACCTGTTGCGGAT [CGCGCCCCTCC_LTGcore_AT_RTGcore_AT] (site CGCGCCCCTCC) (LTG core: AT, RTG core: AT)	0.0457
